This is an account of results in US20230114241A1, “METHODS OF TREATING EPILEPSY USING THE SAME” (Trevena, Inc., priority 2019, published 2023).

Structures are written as SMILES. Where only a bound is given, the exact number is not on record here.

Chain of human sphingosine-1-phosphate receptor 1 (S1P1) (P21453 whole entry): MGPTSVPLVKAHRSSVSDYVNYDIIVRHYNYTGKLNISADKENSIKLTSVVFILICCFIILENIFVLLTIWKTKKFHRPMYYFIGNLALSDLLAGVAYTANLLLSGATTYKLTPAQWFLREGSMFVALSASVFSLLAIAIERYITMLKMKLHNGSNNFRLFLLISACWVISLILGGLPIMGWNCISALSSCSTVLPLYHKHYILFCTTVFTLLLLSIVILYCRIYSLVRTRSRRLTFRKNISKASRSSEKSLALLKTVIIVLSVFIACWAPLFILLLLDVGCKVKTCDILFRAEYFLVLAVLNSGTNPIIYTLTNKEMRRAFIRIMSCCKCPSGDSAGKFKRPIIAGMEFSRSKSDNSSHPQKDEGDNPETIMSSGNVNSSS

The first test has as its target human sphingosine-1-phosphate receptor 1 (S1P1) (Homo sapiens, UniProt P21453). The test can be described thus: Inhibition of cAMP production (HTRF cAMP HiRange), S1P1 CHO-K1 cells. Type of test: cell-based. Particulars: inhibition of cAMP production, S1P1; read-out: hS1P1 CAMP pEC50 (converted). Put shortly: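 Intracellular cAMP changes read by TR-FRET (HTRF HiRange, 1 h room temperature) after 30 min compound exposure at 37 °C. Cells: overnight-plated CHO-K1 stably expressing tagged human S1P1 with EA-β-arrestin2. Responses normalized to fingolimod.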
(cAMP levels reflect the balance of adenylyl cyclase and phosphodiesterase activity.)
Consider `CC(C)n1nnc2cc(-c3nc4c(Cl)cccc4o3)ccc21` [Compound 427, 4-chloro-2-(1-isopropyl-1H-benzo[d][1,2,3]triazol-5-yl)benzo[d]oxazole], for which the EC50 was more than 316 nM.

For the compound `CC(C)n1nnc2cc(-c3c[nH]c(-c4ccccc4)c3)ccc21` [Compound 543, 5-(5-phenyl-1H-pyrrol-3-yl)-1-(propan-2-yl)-1H-1,2,3-benzotriazole], the EC50 is less than 316 nM. The same measure, in the same setting: the same measure for `Cc1cn(C)nc1-c1noc(-c2ccc3c(c2)nnn3C(C)C)n1` [Compound 519, 5-[3-(1,4-dimethyl-1H-pyrazol-3-yl)-1,2,4-oxadiazol-5-yl]-1-(propan-2-yl)-1H-1,2,3-benzotriazole]: less than 316 nM. On the same count and under the same terms, the figure for `CC(C)n1nnc2cc(-c3nc4c(o3)CCCc3ccccc3-4)ccc21` [Compound 434, 4-[1-(propan-2-yl)-1H-1,2,3-benzotriazol-5-yl]-5-oxa-3-azatricyclo[8.4.0.0^2,6] tetradeca-1(14),2(6),3,10,12-pentaene] is more than 316 nM; for `CC(C)n1nnc2cc(-c3nc4c(ccc5sccc54)o3)ccc21` [Compound 457, 4-[1-(propan-2-yl)-1H-1,2,3-benzotriazol-5-yl]-5-oxa-10-thia-3-azatricyclo[7.3.0.0^2,6] dodeca-1(9),2(6),3,7,11-pentaene] it is less than 316 nM.

Still in this test, the particulars now being: inhibition of cAMP production; potency; read-out: hS1P1 CAMP pEC50 (converted).
On to `CCC1(CC)CC(=O)c2cc(-c3nc(-c4ccc(NC(C)=O)cc4)no3)ccc2O1` [Compound 209, N-(4-(5-(2,2-diethyl-4-oxochroman-6-yl)-1,2,4-oxadiazol-3-yl)phenyl)acetamide], for which the EC50 is less than 316 nM. Consider `Cc1ccncc1-c1noc(-c2ccc3nnn(C(C)C)c3c2)n1` [Compound 264, 6-[3-(4-methylpyridin-3-yl)-1,2,4-oxadiazol-5-yl]-1-(propan-2-yl)-1H-1,2,3-benzotriazole], for which the EC50 was more than 316 nM. Still for that read-out and setting: the same measure for `CC(C)n1ncc2cc(-c3nc(-c4ccccc4O)no3)ccc21` [Compound 333, 2-(5-(1-isopropyl-1H-indazol-5-yl)-1,2,4-oxadiazol-3-yl)phenol]: less than 316 nM. `CCC1(CC)CC(=O)c2cc(-c3nnc(-c4cccnc4)o3)ccc2O1` [Compound 28, 2,2-diethyl-6-(5-(pyridin-3-yl)-1,3,4-oxadiazol-2-yl)chroman-4-one]: the EC50 was more than 316 nM. Same read-out and setting: the same measure for `COc1ccc(-c2nc(-c3ccc4c(c3)nnn4C(C)C)no2)c(C)c1` [Compound 90, 3-(1-isopropyl-1H-benzo[d][1,2,3]triazol-5-yl)-5-(4-methoxy-2-methylphenyl)-1,2,4-oxadiazole]: more than 316 nM; for `CC(C)n1nnc2cc(-c3noc(C4CCCCC4)n3)ccc21` [Compound 127, 5-(5-cyclohexyl-1,2,4-oxadiazol-3-yl)-1-(propan-2-yl)-1H-1,2,3-benzotriazole]: more than 316 nM; for `CC(C)n1ccc2cc(-c3nc(-c4cccc5c4OCO5)no3)ccc21` [Compound 326, 3-(benzo[d][1,3]dioxol-4-yl)-5-(1-isopropyl-1H-indol-5-yl)-1,2,4-oxadiazole]: more than 316 nM. Regarding `c1ccc(-c2noc(-c3ccc4c(c3)nnn4C3CCCCC3)n2)cc1` [Compound 292, 1-cyclohexyl-5-(3-phenyl-1,2,4-oxadiazol-5-yl)-1H-1,2,3-benzotriazole], the EC50 is more than 316 nM.

Consider `CCC1(CC)CC(=O)c2cc(-c3nc(-c4ccc(C(N)=O)cc4)no3)ccc2O1` [Compound 179, 4-(5-(2,2-diethyl-4-oxochroman-6-yl)-1,2,4-oxadiazol-3-yl)benzamide], for which the EC50 is less than 316 nM. The same measure, in the same setting: the same measure for `CC(C)n1nnc2cc(-c3noc(-c4ccccc4C#N)n3)ccc21` [Compound 279, 2-(3-(1-isopropyl-1H-benzo[d][1,2,3]triazol-5-yl)-1,2,4-oxadiazol-5-yl)benzonitrile]: more than 316 nM. In the case of `CC(C)Oc1ccccc1-c1noc(-c2ccc3c(ccn3C(C)C)c2)n1` [Compound 324, 3-(2-isopropoxyphenyl)-5-(1-isopropyl-1H-indol-5-yl)-1,2,4-oxadiazole], the EC50 is more than 316 nM.
